Like-named read-outs stand apart in the source and are kept apart here. One block for each molecule: values may come before it. Where a SMILES comes first, the peptide text is derived from it. [ ]: non-standard residue; d: D form.
What was measured:
liver = settings: cited from earlier work
small intestinal mucosa = settings: rats, local intra-arterial; cited from earlier work
human ETA R = molecular target: T1, human ETA R (Homo sapiens, UniProt P25101); assay: biochemical; assay type: binding; settings: human cloned receptor ETA; [125I]-ET-1 (40 pM), 2 hours, 37 °C; read-out: HERBA-A IC50
T1 sequence (P25101 21-427): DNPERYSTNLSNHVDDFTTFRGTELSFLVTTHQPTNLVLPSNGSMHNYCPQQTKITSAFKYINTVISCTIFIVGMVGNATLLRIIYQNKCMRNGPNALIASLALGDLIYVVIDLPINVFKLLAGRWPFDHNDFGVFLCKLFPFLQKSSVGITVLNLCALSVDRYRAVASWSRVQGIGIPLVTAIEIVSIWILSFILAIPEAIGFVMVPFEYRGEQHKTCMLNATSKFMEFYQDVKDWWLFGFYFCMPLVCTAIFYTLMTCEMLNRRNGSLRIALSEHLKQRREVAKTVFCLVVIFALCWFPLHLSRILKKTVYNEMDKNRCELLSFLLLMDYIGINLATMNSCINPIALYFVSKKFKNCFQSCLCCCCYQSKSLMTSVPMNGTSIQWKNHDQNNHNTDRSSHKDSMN
Experimental: (§1) The following cultured cells were used in binding experiments: CHO-K1 cells expressing recombinant human ETB R (HERBA B), or Ltk-cells expressing human ETA R (HERBA A). […] Membranes were prepared from cultured cells by lysing cells in cold lysis buffer (5 mM HEPES, 2 mM EDTA, pH 7.4) and homogenizing with a Dounce "A" homogenizer. […] Radioligand and competing ligands were prepared in binding buffer containing 20 mM Tris, 2 mM EDTA, and 0.1% BSA.
(§2) The assay was terminated by filtration over Whatman GF/B filters that were presoaked with 50 mM Tris, pH 7.4, containing 0.2% BSA and 100 μM bacitracin. […] binding was defined as total binding minus nonspecific binding.

recombinant human ETB R = molecular target: T2, recombinant human ETB R (Homo sapiens, UniProt P24530); assay: biochemical; assay type: binding; settings: human cloned receptor ETB; [125I]-ET-1 (40 pM), 2 hours, 37 °C; read-out: HERBA-B IC50
T2 sequence (P24530 27-442): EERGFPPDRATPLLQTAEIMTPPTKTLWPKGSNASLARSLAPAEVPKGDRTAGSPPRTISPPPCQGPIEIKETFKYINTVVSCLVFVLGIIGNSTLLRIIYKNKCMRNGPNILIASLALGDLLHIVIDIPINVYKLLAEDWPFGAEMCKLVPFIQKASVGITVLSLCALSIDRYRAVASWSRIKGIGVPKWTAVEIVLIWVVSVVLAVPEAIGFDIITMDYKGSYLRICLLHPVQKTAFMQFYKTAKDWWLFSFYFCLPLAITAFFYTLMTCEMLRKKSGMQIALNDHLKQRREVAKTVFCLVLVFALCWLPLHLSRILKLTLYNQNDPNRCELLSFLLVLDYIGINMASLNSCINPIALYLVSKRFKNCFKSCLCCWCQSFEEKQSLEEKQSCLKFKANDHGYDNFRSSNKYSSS
Experimental: as §1, §2

[1] = molecular target: T3, ET-1 stimulated vasoconstriction, rabbit femoral artery (Oryctolagus cuniculus, UniProt A5A8K3); settings: read-out: VERA-A pA2 (converted)
T3 sequence (A5A8K3 21-427): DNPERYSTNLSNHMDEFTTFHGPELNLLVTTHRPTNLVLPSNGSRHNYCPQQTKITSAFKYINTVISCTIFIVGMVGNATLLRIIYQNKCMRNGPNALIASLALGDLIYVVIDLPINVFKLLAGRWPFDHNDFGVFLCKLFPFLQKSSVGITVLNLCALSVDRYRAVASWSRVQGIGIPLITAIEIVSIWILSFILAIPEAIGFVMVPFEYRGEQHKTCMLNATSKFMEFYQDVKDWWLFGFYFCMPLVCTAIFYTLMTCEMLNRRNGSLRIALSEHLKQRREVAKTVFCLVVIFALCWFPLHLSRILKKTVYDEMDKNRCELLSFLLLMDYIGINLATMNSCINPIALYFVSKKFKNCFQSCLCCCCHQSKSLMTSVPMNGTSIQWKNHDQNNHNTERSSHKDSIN
Excerpt: In vitro and in vivo studies with a series of hexapeptide endothelin antagonists. J. Cardiovasc. […] The data are presented as pA2 values.

[2] = test system: ET-1 induced bronchoconstriction and tracheal smooth muscle contraction; settings: allergic sheep; cited from earlier work
[3] = test system: rat hypoxia model of hypertension; settings: cited from earlier work
[4] = test system: early cerebral vasospasm following subarachnoid hemorrhage (SAH); settings: in vivo; cited from earlier work
[5] = test system: ischemic brain injury in rats; settings: oral; cited from earlier work
[6] = test system: ET-1-induced gastric ulceration; settings: in vivo; cited from earlier work
physchem = settings: water
[7] = test system: cerebral hemisphere of cats following middle cerebral artery occlusion; settings: IV; cited from earlier work
[8] = test system: early cerebral vasospasm following SAH in the rat; settings: cited from earlier work
[9] = test system: vasoconstriction of the basilar artery; settings: after 7 days, canine two-hemorrhage model; cited from earlier work

IC50 (human ETA R): 1 nM | Kb [1]: 100 nM
Molecule: COc1ccc(C2(O)OC(=O)C(c3ccc4c(c3)OCO4)=C2Cc2cc(OC)c(OC)c(OCC(=O)NCCN3CCOCC3)c2)cc1 (stereo not shown) [Example 4]

solubility (physchem): > 25 mg/mL
Molecule: COc1ccc(C2(O)OC(=O)C(c3ccc4c(c3)OCO4)=C2Cc2cc(OC)c(OC)c(OCCN(C)C)c2)cc1 (stereo not shown) [Example 11, 3-Benzo[1,3]dioxyl-5-yl-4-[3-(2-dimethylamino-ethoxy)-4,5-dimethoxy-benzyl]-5-hydroxy-5-(4-methoxy-phenyl)-5H-furan-2-one 2-hydroxyethanesulfonate]

IC50 (human ETA R): 14 nM | IC50 (recombinant human ETB R): 3350 nM
Molecule: COc1cc(CC2=C(c3ccc4c(c3)OCO4)C(=O)OC2(O)c2ccc(OCCN3CCOCC3)cc2)cc(OC)c1OC (stereo not shown) [Example 27, 3-Benzo[1,3]dioxol-5-yl-5-hydroxy-5-[4-(2-morpholin-4-ethoxy)-phenyl]-4-(3,4,5-trimethoxy-benzyl)-5H-furan-2-one]

solubility (physchem): > 25 mg/mL
Molecule: COc1ccc(C2(O)OC(=O)C(c3ccc4c(c3)OCO4)=C2Cc2cc(OC)c(OC)c(OCCN3CCOCC3)c2)cc1 (stereo not shown) [Example 37, 3-Benzo[1,3]dioxol-5-yl-4-[3,4-dimethoxy-5-(2-morpholin-4-yl-ethoxy)-benzyl]-5-hydroxy-(4-methoxy-phenyl)-5-furan-2-one 2-hydroxyethanesulfonate]

The next lines start with the molecule.

Molecule: endothelin
hepatic vasculature vasoconstriction and hepatic glucose output (liver): eliciting both sustained vasoconstriction of the hepatic vasculature and a significant increase in hepatic glucose output | small intestinal mucosal damage (small intestinal mucosa): shown to induce small intestinal mucosal damage in rats in a dose-dependent manner

Molecule: COc1ccc(C2(O)OC(=O)C(c3ccc4c(c3)OCO4)=C2Cc2cc(OC)c(OC)c(OC)c2)c(OCCCN(C)C)c1 (stereo not shown) [Example 38, 3Benzo[1,3]dioxol-5-yl-5-[2-(3-dimethylamino-propoxy)-4-methoxy-phenyl]-5-hydroxy-4-(3,4,5-trimethoxy-benzyl)-5H-furan-2-one]
IC50 (human ETA R): 1 nM | IC50 (recombinant human ETB R): 800 nM | Kb [1]: 100 nM

Molecule: CC(C)C[C@@H]1NC(=O)[C@@H](C(C)C)NC(=O)[C@@H]2CCCN2C(=O)[C@@H](CC(=O)O)NC(=O)[C@@H](Cc2c[nH]c3ccccc23)NC1=O [BQ-123] (cyclo(L[dW][dD]P[dV]))
ET-1 induced bronchoconstriction and tracheal smooth muscle contraction [2]: shown to block ET-1 induced bronchoconstriction and tracheal smooth muscle contraction in allergic sheep | pulmonary vascular resistance and pulmonary arterial pressure [3]: provide protection in a rat hypoxia model of hypertension by lowering the increase in pulmonary vascular resistance and pulmonary arterial pressure | early cerebral vasospasm following SAH [4]: prevent early cerebral vasospasm following subarachnoid hemorrhage (SAH)

Molecule: CCCOc1ccc2c(c1)[C@@H](c1ccc(OC)cc1OCCO)[C@H](C(=O)O)[C@H]2c1ccc2c(c1)OCO2 [SB 217242]
reduction of ischemic brain injury [5]: Reduction of ischemic brain injury in rats was also demonstrated

Molecule: COc1ccccc1Oc1c(NS(=O)(=O)c2ccc(C(C)(C)C)cc2)nc(-c2ncccn2)nc1OCCO [Bosentan]
pulmonary vascular resistance and pulmonary arterial pressure [3]: provide protection in a rat hypoxia model of hypertension by lowering the increase in pulmonary vascular resistance and pulmonary arterial pressure | ET-1-induced changes in gastric mucosal hemodynamics and gastric ulceration [6]: antagonist toward the ET-1-induced changes in gastric mucosal hemodynamics as well as on ET-1-induced gastric ulceration

Molecule: COc1ccc(C2(O)OC(=O)C(c3ccc4c(c3)OCO4)=C2Cc2cc(OC)c(OC)c(OCCCS(=O)(=O)O)c2)cc1 (stereo not shown) [Example 26]
solubility (physchem): > 80 mg/mL

Molecule: COc1ccc(C2(O)OC(=O)C(c3ccc4c(c3)OCO4)=C2Cc2cccc(CN(C)C)c2)cc1 (stereo not shown) [Example 33, 3-Benzo[1,3]dioxol-5-yl-4-(3-dimethylaminomethyl-benzyl)-5-hydroxy-5-(4-methoxy-phenyl)-5H-furan-2-one 2-hydroxyethanesulfonate]
IC50 (human ETA R): 1.2 nM | IC50 (recombinant human ETB R): 470 nM | Kb ([1]; ET-1 stimulated vasoconstriction, rabbit femoral artery): 200 nM

Molecule: COc1ccc(C2(O)OC(=O)C(c3ccc4c(c3)OCO4)=C2Cc2cc(OC)c(OC)c(OC)c2)cc1 (stereo not shown) [PD 156707]
pulmonary vascular resistance and pulmonary arterial pressure [3]: provide protection in a rat hypoxia model of hypertension by lowering the increase in pulmonary vascular resistance and pulmonary arterial pressure | volume of ischemic damage in the cerebral hemisphere [7]: significantly reduced

Molecule: COc1cccc(Oc2c(NS(=O)(=O)c3ccc(C(C)(C)C)cc3)ncnc2OCCO)c1 [Ro 46-2005]
early cerebral vasospasm following SAH [8]: prevent early cerebral vasospasm following SAH in the rat

Molecule: FR 139317
vasoconstriction of the basilar artery [9]: significantly inhibited the vasoconstriction of the basilar artery

Source: patent US6297274A, “Nonpeptide endothelin antagonists with increased water solubility” (priority 1998, dated 2001)
